Laboratory results published in US20260374754A1, “N-((ISOQUINOLIN-6-YL)METHYL)-1H-PYRAZOLE-4-CARBOXAMIDE DERIVATIVES AS PLASMA KALLIKREIN INHIBITORS FOR THE TREATMENT OF HEREDITARY ANGIODEMA” (Takeda Pharmaceutical Company Limited, priority 2022, published 2026).
Counter-ions that a name gives are not always drawn.

Biological target: human activated kallikrein enzyme (Homo sapiens, UniProt P03952)
Assay: Inhibition of human activated plasma kallikrein, fluorogenic PFR-AMC substrate, 500 pM enzyme format
Assay type: biochemical
Details: 500 pM activated kallikrein; 300 μM PFR-AMC; 30 min preincubation; 10 min room temperature; pH 7.5; read-out: Primary Dose Response Assay: Average EC50
In short: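 500 pM activated kallikrein preincubated 30 min at room temperature with inhibitors in pH 7.5 Tris/EDTA/NaCl buffer with PEG-400 and Triton X-100. Reaction started with 300 μM PFR-AMC, run 10 min at room temperature; AMC fluorescence read at ex 380/em 460 nm.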

Chain of human activated kallikrein enzyme (P03952 391-638 limits assumed): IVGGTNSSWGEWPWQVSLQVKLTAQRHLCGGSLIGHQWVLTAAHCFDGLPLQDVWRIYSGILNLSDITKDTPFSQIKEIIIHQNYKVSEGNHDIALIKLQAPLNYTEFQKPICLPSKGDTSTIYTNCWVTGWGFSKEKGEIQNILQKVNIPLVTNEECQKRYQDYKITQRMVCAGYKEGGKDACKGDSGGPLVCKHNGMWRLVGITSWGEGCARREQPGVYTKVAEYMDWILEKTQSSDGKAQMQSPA
Chain of human activated kallikrein enzyme (P03952 20-390 partner limits assumed): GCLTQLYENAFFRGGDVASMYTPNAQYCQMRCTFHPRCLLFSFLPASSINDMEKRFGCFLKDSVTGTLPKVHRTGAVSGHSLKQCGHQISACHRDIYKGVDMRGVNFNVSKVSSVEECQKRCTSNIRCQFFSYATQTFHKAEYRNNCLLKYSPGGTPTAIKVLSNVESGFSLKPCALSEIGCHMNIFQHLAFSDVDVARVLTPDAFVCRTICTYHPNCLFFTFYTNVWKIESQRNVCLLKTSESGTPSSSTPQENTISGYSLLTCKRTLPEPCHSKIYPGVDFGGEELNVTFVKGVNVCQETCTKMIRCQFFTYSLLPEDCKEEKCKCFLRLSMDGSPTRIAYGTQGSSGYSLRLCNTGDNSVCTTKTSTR

SMILES | EC50
Cc1cc2c(N)nccc2c(C)c1CNc1cc2nn(Cc3cn4cc(C5CC5)ccc4n3)cc2cn1 [Example 269, 6-(((2-((6-cyclopropylimidazo[1,2-a]pyridin-2-yl)methyl)-2H-pyrazolo[4,3-c]pyridin-6-yl)amino)methyl)-5,7-dimethylisoquinolin-1-amine] | 10 to 100 nM
Cc1cc2c(N)nccc2c(C)c1CNc1cc(OCc2ccc(CCn3cccn3)cc2)cnn1 [Example 278, 6-(((5-((4-(2-(1H-pyrazol-1-yl)ethyl)benzyl)oxy)pyridazin-3-yl)amino)methyl)-5,7-dimethylisoquinolin-1-amine] | 1 to 10 nM
Cc1cc2c(N)nccc2c(C)c1CNc1ncccc1OCc1cn2cc(C3CC3)ccc2n1 [Example 289, 6-(((3-((6-cyclopropylimidazo[1,2-a]pyridin-2-yl)methoxy)pyridin-2-yl)amino)methyl)-5,7-dimethylisoquinolin-1-amine] | 100 to 1000 nM
CCOC(=O)CCc1nc(NCc2c(C)cc3c(N)nccc3c2C)cc(OCc2cn3cc(C4CC4)cnc3n2)n1 [Example 291, ethyl 3-(4-(((1-amino-5,7-dimethylisoquinolin-6-yl)methyl)amino)-6-((6-cyclopropylimidazo[1,2-a]pyrimidin-2-yl)methoxy)pyrimidin-2-yl)propanoate] | 1 to 10 nM
Cc1cc2c(N)nccc2c(C)c1CNc1cc(OCc2cn3cc(C4CC4)ccc3n2)nc(CCC(=O)O)n1 [Example 293, 3-(4-(((1-amino-5,7-dimethylisoquinolin-6-yl)methyl)amino)-6-((6-cyclopropylimidazo[1,2-a]pyridin-2-yl)methoxy)pyrimidin-2-yl)propanoic acid] | < 1 nM
Cc1cc2c(N)nccc2c(C)c1CNc1cc(OCc2nc3ccc(C4CC4)cn3n2)nc(CCC(=O)O)n1 [Example 295, 3-(4-(((1-amino-5,7-dimethylisoquinolin-6-yl)methyl)amino)-6-((6-cyclopropyl-[1,2,4]triazolo[1,5-a]pyridin-2-yl)methoxy)pyrimidin-2-yl)propanoic acid] | 1 to 10 nM
Cc1cc2c(N)nccc2c(C)c1CNc1cc(OCc2ccc(-n3ccccc3=O)cc2)ncn1 [Example 296, 1-(4-(((6-(((1-amino-5,7-dimethylisoquinolin-6-yl)methyl)amino)pyrimidin-4-yl)oxy)methyl)phenyl)pyridin-2(1H)-one] | 10 to 100 nM
Cc1cc2c(N)nccc2c(C)c1CNc1cc(OCc2cnc(N3CCCC3)nc2)ncn1 [Example 298, 5,7-dimethyl-6-(((6-((2-(pyrrolidin-1-yl)pyrimidin-5-yl)methoxy)pyrimidin-4-yl)amino)methyl)isoquinolin-1-amine] | 10 to 100 nM
Cc1cc2c(N)nccc2c(C)c1CNc1cc(OCc2ccc(Cn3cccn3)nc2)ncn1 [Example 300, 6-(((6-((6-((1H-pyrazol-1-yl)methyl)pyridin-3-yl)methoxy)pyrimidin-4-yl)amino)methyl)-5,7-dimethylisoquinolin-1-amine] | 100 to 1000 nM
Cc1cc2c(N)nccc2c(C)c1CNc1cc(OCc2ccc(Cn3ccccc3=O)cc2)ncn1 [Example 301, 1-(4-(((6-(((1-amino-5,7-dimethylisoquinolin-6-yl)methyl)amino)pyrimidin-4-yl)oxy)methyl)benzyl)pyridin-2(1H)-one] | < 1 nM
Cc1cc2c(N)nccc2c(C)c1CNc1cc(OCc2ccc(CN3CCOCC3=O)cc2)ncn1 [Example 302, 4-(4-(((6-(((1-amino-5,7-dimethylisoquinolin-6-yl)methyl)amino)pyrimidin-4-yl)oxy)methyl)benzyl)morpholin-3-one, trifluoroacetic acid salt] | 1 to 10 nM
Cc1cc2c(N)nccc2c(C)c1CNc1cc(OCc2ccc(Cn3cccc(C4CC4)c3=O)cc2)ncn1 [Example 303, 1-(4-(((6-(((1-amino-5,7-dimethylisoquinolin-6-yl)methyl)amino)pyrimidin-4-yl)oxy)methyl)benzyl)-3-cyclopropylpyridin-2(1H)-one, formic acid salt] | 1 to 10 nM
Cc1cc2c(N)nccc2c(C)c1CNc1cc(NCc2ccc3ncc(Cl)cc3c2)ncn1 [Example 309, N^4-((1-amino-5,7-dimethylisoquinolin-6-yl)methyl)-N^6-((3-chloroquinolin-6-yl)methyl)pyrimidine-4,6-diamine] | < 1 nM

The next lines start with the values.

EC50 | SMILES
< 1 nM | Cc1cc2c(N)nccc2c(C)c1CNc1nccc2cn(Cc3cn4cc(C5CC5)cnc4n3)nc12 [Example 264, 6-(((2-((6-cyclopropylimidazo[1,2-a]pyrimidin-2-yl)methyl)-2H-pyrazolo[3,4-c]pyridin-7-yl)amino)methyl)-5,7-dimethylisoquinolin-1-amine]
100 to 1000 nM | Cc1cc2c(N)nccc2c(C)c1CNc1nccc2c1cnn2Cc1cn2cc(C3CC3)ccc2n1 [Example 266]
1 to 10 nM | CCOC(=O)CCc1cc(C2CC2)cc2cc(COc3cc(NCc4c(C)cc5c(N)nccc5c4C)ncn3)nn12 [Example 270, ethyl 3-(2-(((6-(((1-amino-5,7-dimethylisoquinolin-6-yl)methyl)amino)pyrimidin-4-yl)oxy)methyl)-5-cyclopropylpyrazolo[1,5-a]pyridin-7-yl)propanoate]
< 1 nM | Cc1cc2c(N)nccc2c(C)c1CNc1nccc2cn(Cc3cn4cc(C5CC5)ccc4n3)nc12 [Example 271, 6-(((2-((6-cyclopropylimidazo[1,2-a]pyridin-2-yl)methyl)-2H-pyrazolo[3,4-c]pyridin-7-yl)amino)methyl)-5,7-dimethylisoquinolin-1-amine]
1 to 10 nM | CCOC(=O)CCc1nc(NCc2c(C)cc3c(N)nccc3c2C)cc(OCc2cn3cc(C4CC4)ccc3n2)n1 [Example 274, ethyl 3-(4-(((1-amino-5,7-dimethylisoquinolin-6-yl)methyl)amino)-6-((6-cyclopropylimidazo[1,2-a]pyridin-2-yl)methoxy)pyrimidin-2-yl)propanoate]
< 1 nM | Cc1cc2c(N)nccc2c(C)c1CNc1cc(OC(C)c2ccc(Cn3cccn3)cc2)cnn1 (stereo not shown) [Example 275, 6-(((5-(1-(4-((1H-pyrazol-1-yl)methyl)phenyl)ethoxy)pyridazin-3-yl)amino)methyl)-5,7-dimethylisoquinolin-1-amine]
1 to 10 nM | Cc1cc2c(N)nccc2c(C)c1CNc1ccnc(OCc2cn3cc(C4CC4)ccc3n2)c1 [Example 279, 6-(((2-((6-cyclopropylimidazo[1,2-a]pyridin-2-yl)methoxy)pyridin-4-yl)amino)methyl)-5,7-dimethylisoquinolin-1-amine]
100 to 1000 nM | Cc1cc2c(N)nccc2c(C)c1CNc1cc(OCc2nc3cc(C4CC4)ccc3s2)ncn1 [Example 282, 6-(((6-((5-cyclopropylbenzo[d]thiazol-2-yl)methoxy)pyrimidin-4-yl)amino)methyl)-5,7-dimethylisoquinolin-1-amine]
1 to 10 nM | Cc1cc2c(N)nccc2c(C)c1CNc1cc2c(cn1)c(F)cn2Cc1cc2cc(C3CC3)cnc2s1 [Example 286, 6-(((1-((5-cyclopropylthieno[2,3-b]pyridin-2-yl)methyl)-3-fluoro-1H-pyrrolo[3,2-c]pyridin-6-yl)amino)methyl)-5,7-dimethylisoquinolin-1-amine]
10 to 100 nM | Cc1cc2c(N)nccc2c(C)c1CNc1nccnc1OCc1cn2cc(C3CC3)ccc2n1 [Example 287, 6-(((3-((6-cyclopropylimidazo[1,2-a]pyridin-2-yl)methoxy)pyrazin-2-yl)amino)methyl)-5,7-dimethylisoquinolin-1-amine]
10 to 100 nM | CCOC(=O)CCc1nc(NCc2c(C)cc3c(N)nccc3c2C)cc(OCc2nc3ccc(C4CC4)cn3n2)n1 [Example 292, ethyl 3-(4-(((1-amino-5,7-dimethylisoquinolin-6-yl)methyl)amino)-6-((6-cyclopropyl-[1,2,4]triazolo[1,5-a]pyridin-2-yl)methoxy)pyrimidin-2-yl)propanoate]
< 1 nM | Cc1cc2c(N)nccc2c(C)c1CNc1cc(OCc2cn3cc(C4CC4)cnc3n2)nc(CCC(=O)O)n1 [Example 294, 3-(4-(((1-amino-5,7-dimethylisoquinolin-6-yl)methyl)amino)-6-((6-cyclopropylimidazo[1,2-a]pyrimidin-2-yl)methoxy)pyrimidin-2-yl)propanoic acid]
1 to 10 nM | Cc1cc2c(N)nccc2c(C)c1CNc1cc(OCc2ccc(Cc3ccn(C)n3)cc2)ncn1 [Example 297, 5,7-dimethyl-6-(((6-((4-((1-methyl-1H-pyrazol-3-yl)methyl)benzyl)oxy)pyrimidin-4-yl)amino)methyl)isoquinolin-1-amine, formic acid salt]
1 to 10 nM | Cc1cc2c(N)nccc2c(C)c1CNc1cc(OCc2ccc(Cc3cccn(C)c3=O)cc2)ncn1 [Example 299, 3-(4-(((6-(((1-amino-5,7-dimethylisoquinolin-6-yl)methyl)amino)pyrimidin-4-yl)oxy)methyl)benzyl)-1-methylpyridin-2(1H)-one]
< 1 nM | Cc1cc2c(N)nccc2c(C)c1CNc1cc(OCc2cn3c(C)c(Cl)ccc3n2)ncn1 [Example 304, 6-(((6-((6-chloro-5-methylimidazo[1,2-a]pyridin-2-yl)methoxy)pyrimidin-4-yl)amino)methyl)-5,7-dimethylisoquinolin-1-amine]
10 to 100 nM | Cc1cc2c(N)nccc2c(C)c1CNc1cc(NCc2ccc3ccccc3n2)ncn1 [Example 306, N^4-((1-amino-5,7-dimethylisoquinolin-6-yl)methyl)-N^6-(quinolin-2-ylmethyl)pyrimidine-4,6-diamine]
10 to 100 nM | COc1ccc2nc(CNc3cc(NCc4c(C)cc5c(N)nccc5c4C)ncn3)ccc2c1 [Example 307, N^4-((1-amino-5,7-dimethylisoquinolin-6-yl)methyl)-N^6-((6-methoxyquinolin-2-yl)methyl)pyrimidine-4,6-diamine]
10 to 100 nM | Cc1cc2c(N)nccc2c(C)c1CNc1cc(N(C)Cc2ccc3ncccc3c2)ncn1 [Example 308, N^4-((1-amino-5,7-dimethylisoquinolin-6-yl)methyl)-N^6-methyl-N^6-(quinolin-6-ylmethyl)pyrimidine-4,6-diamine]
